≈ marks a conversion by molar mass, not a printed value. Like-named read-outs stand apart in the source and are kept apart here.
Key:
[1] = set-up: method as in earlier work; conditions: IUPAC Digitized pKa Dataset ref 30; cited from earlier work
ERα full-length = target: T1, ERα full-length (Homo sapiens, UniProt P03372); assay: PolarScreen ERα Competitor Assay (fluorescence polarization); type: binding
T1 construct: 34 nM ERα full-length and 1.4 nM Fluormone EL Red were incubated; purchased ThermoFisher A15884
T1 sequence (P03372 1-595): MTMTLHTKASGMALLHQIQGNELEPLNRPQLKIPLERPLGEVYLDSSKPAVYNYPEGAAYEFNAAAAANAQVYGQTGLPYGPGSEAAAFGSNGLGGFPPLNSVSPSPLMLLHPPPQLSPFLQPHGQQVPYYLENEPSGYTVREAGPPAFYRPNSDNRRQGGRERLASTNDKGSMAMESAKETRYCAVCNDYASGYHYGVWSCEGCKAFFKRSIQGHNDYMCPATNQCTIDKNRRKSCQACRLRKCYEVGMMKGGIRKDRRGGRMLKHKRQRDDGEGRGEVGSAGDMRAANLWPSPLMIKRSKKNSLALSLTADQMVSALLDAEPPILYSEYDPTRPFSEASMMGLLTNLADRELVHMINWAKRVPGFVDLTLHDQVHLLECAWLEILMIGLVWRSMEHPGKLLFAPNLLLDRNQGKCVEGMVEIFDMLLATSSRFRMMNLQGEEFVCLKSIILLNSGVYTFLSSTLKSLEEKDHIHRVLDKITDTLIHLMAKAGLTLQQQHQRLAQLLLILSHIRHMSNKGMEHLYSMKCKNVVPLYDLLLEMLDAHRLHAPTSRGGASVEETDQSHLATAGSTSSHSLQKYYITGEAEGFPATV
Procedure: The PolarScreen Estrogen Receptor-Alpha Competitor Assay, Red (ThermoFisher, A15884) was used to determine if the X compounds bind to ERα. The assay was performed according to the manufacturer’s protocol.

MCF-7 cells = assay: Clonogenic assay in MCF-7 cells with AHR antagonist CH223191; type: cell-based, human; conditions: MCF-7, 10 nM compound, 1 μM CH223191, 14 days
Procedure: (§1) Cells were seeded at a density of 1–2×10^3 cells/well in a 6-well plate and treated with increasing concentrations of the X compounds for 14–21 days. Medium and compounds were renewed every 7 days. The experiments were terminated by fixing the cells with methanol and the colonies formed were visualized after staining with 0.5% crystal violet (w/v) in 20% methanol (v/v). Plates were photographed and the area covered by the colonies was calculated using the ColonyArea Plugin for Fiji (RRID:SCR_003070).[20]

MCF-7 luc = assay: Clonogenic assay (clonal expansion), MCF-7 cells expressing wild-type ER; type: cell-based; conditions: Homo sapiens, MCF7, 336 h
Procedure: as §1

MCF-7 luc Y537S = assay: Clonogenic assay (clonal expansion), MCF-7 cells with Y537S ER mutation; type: cell-based; conditions: Homo sapiens, MCF7, 336 h
Procedure: as §1

[2] = tested on: MCF-7 luc D538G and MCF-7 luc Y537S; assay: Clonogenic assay, cells expressing the two mutant ERs (range over both); type: cell-based; conditions: Homo sapiens, MCF7, read-out: IC50 clonal expansion in cells expressing the two mutant ERs
Procedure: as §1

PDxO#28 = assay: Organoid viability, CellTiter-Glo 3D; type: cell-based, human; conditions: PDxO#28 in 3D Matrigel, 7 days, increasing doses; same results in PDO#268 and PDO#480
From the text: Organoids were generated from patients’ samples and from patient-derived xenograft (PDX) tumors, as previously described.[25] PDX were derived from BCRO#28, an ER^+ breast cancer sample collected from a treatment naive patient. PDO#268 was derived from BCRO#268, an ER^+ breast cancer sample collected from treatment naive patient. PDO#480 was derived from BCRO#480, an ER^+ breast cancer sample collected from a patient subjected to chemotherapy in neo-adjuvant setting. Briefly, tumors freshly explanted from mice were mechanically shredded, digested with collagenase (Merck) and filtered through a 100 μm strainer. Digested material (isolated cells and small cell clusters) was centrifuged and embedded in 3D-matrix drops (reduced growth factor Basement Membrane Extract, BME, R&D systems), then overlaid with breast cancer organoid medium.[25] For 3D survival curves under treatment, organoids were embedded in BME drops and, after 24 - 48 h, drugs were added. Fresh drug-containing medium was replaced on day 4. On day 7 of treatment, CellTiter-Glo 3D Cell Viability Assay (Promega) was added and luminescent signal from viable organoids was recorded on Infinite M1000 Pro instrument (Tecan).

[3] = tested on: ERα LBD or full-length ERα; assay: Nuclear receptor activity profiling (NAPing), E2-induced ERα-coregulator interaction; type: biochemical; conditions: E2 −8.5 logM, compound −5.5 logM, LBD or full-length ER
Procedure: Preparation of assay mixes with ERα recombinant ligand binding domain (LBD) and full-length ERα in MCF-7 extracts and measurement of coregulator recruitment on the NAPing platform (PML, Oss, The Netherlands) was performed as described previously.[68]^,[69] […] Unbound ERα and antibodies were removed by washing. Residual ERα binding to each coregulator motifs was recorded on tiff images and quantified using an R-based analysis software package (PML, Oss, The Netherlands).

MCF-7 luc D538G = assay: Clonogenic assay (clonal expansion), MCF-7 cells with D538G ER mutation; type: cell-based; conditions: Homo sapiens, MCF7, 336 h
Procedure: as §1

CTC-ITB-01 cells = assay: cells; type: cell-based; conditions: Homo sapiens, read-out: LC50
Procedure: LC50 values were measured using the CyQUANT NF Cell Proliferation Assay Kit (Thermo Fisher). CTC-ITB-01 cells were plated at a density of 2x10^3 cells/well in 96-well plates and treated the following day with serial dilutions of the test compounds. After incubation for the indicated time, cells were stained with CyQUANT dye according to the manufacturer’s protocol and incubated at 37°C for 30 min. Fluorescence was measured using a Tecan Infinite M Nano+ (excitation: 485 nm; emission: 530 nm). For the calculation of the LC50 the fluorescence was plotted against the Log10 of the inhibitor concentration in nM as x values and the LC50 values were calculated with 95% confidence intervals (n = 4).

ERα in MCF-7 cells = assay: Immunoblot of ERα in MCF-7 cells; type: cell-based, human; conditions: MCF-7, 48 h, increasing concentrations up to 1 μM
Procedure: To determine the relative expression of proteins by Western blotting, cells were first washed with ice-cold phosphate buffered saline (PBS). Subsequently, they were lysed in ice-cold NP40 lysis buffer (1%NP-40, 50 mM Tris-HCl, pH 8.0, 150 mM NaCl, 5 mM Ethylenediaminetetraacetic acid [EDTA], 1 mM PMSF) on ice. DNA was degraded by sonification (five pulses at 50 amplitudes). Protein concentration was determined, and equal amounts of protein were separated on a 9% SDS-PAGE gel. The proteins were transferred onto nitrocellulose membrane by a standard Western blotting protocol and the membranes were incubated with the following antibodies: ERα (Santa Cruz Biotechnology, sc-8002, RRID: AB_627558) and PCNA (Santa Cruz Biotechnology, sc-56, RRID: AB_628110), followed by incubation with HRP labeled Goat anti-mouse Immunoglobulins (DAKO, P0447, RRID: AB_2617137).

[4] = tested on: AHR target genes CYP1A1, CYP1B1, ALDH3A1; conditions: human, 16 h, 1 µM
[5] = Compound stability in aqueous environment; type: physicochemical; conditions: 12.5 μM, HEPES pH 7.4/acetonitrile 3:2, 1% DMSO, 21 °C, 5 days
Procedure: The stability of the compounds was evaluated at a concentration of 12.5 μM in a 3:2 mixture of buffer (HEPES, 0.1 M, pH 7.4) and acetonitrile, with 1% DMSO. Acetonitrile was added because the concentration of 12.5 μM exceeded the thermodynamic solubility of the compounds in the buffer. This addition thereby prevented the formation of precipitates and a gradual decrease in compound concentration during the measurement. The resulting solution was stirred at 21 °C in a sealed vial (crimp neck vials, 5 mL, clear (Cat. No. 548-0611A) in combination with natural rubber septa (548-0565A) and aluminum crimp caps (548-3278A), VWR International) for 5 days. […] The AUC measured was subsequently plotted as a function of the incubation time (Figure S3). No signs of decomposition could be observed over the given time.

[6] = Thermodynamic solubility, shake-flask method; type: physicochemical; conditions: HEPES buffer 0.1 M pH 7.4, 21 °C
Procedure: Thermodynamic solubility was determined using the classical shake-flask method. The solid compound (4 mg) was suspended in 1 mL HEPES buffer (0.1 M, pH 7.4) and constantly stirred at 21 °C for 24 h. […] The injection volume for all analyses was 50 μL and the flow rate was kept at 1 mL/min during the analysis. A mobile phase gradient method was applied as a method with 5% solvent B to 99% solvent B in 5 min, followed by 3 min of elution at 99% solvent B.
Calibration curve was generated from a serial dilution of the respective analyte in DMSO at 2.5, 1.25, 0.625, 0.313, 0.156, 0.078, 0.039 mM starting from a 10 mM DMSO stock solution. Subsequently, 2 μL of each dilution was added to 198 μL of a buffer (HEPES, 0.1 M, pH 7.4)/acetonitrile mixture in a 3:2 ratio yielding final dilutions of 25, 12.5, 6.25, 3.125, 1.562, 0.781, 0.391 μM. These were then subjected to HPLC analysis as described above.
Using the results from the linear regression of the internal calibration measurement points (Figure S5) and the mean AUC values from the saturated aqueous solutions, the concentration C of the analytes in the saturated aqueous solution, expressed in μM, were calculated using Equation 2:(Equation 1) AUC=Slope·C+YIntercept (Equation 2) C=AUC−YIntercept/Slope

[7] = HEPES buffer, 21 °C, pH 7.4, aqueous buffer, thermodynamic from solid

## c1ccn2ccnc2c1 [Imidazo(1,2-a)pyridine]
[1]
  experimental pKa: 6.79

## C[C@]12CC[C@@H]3c4ccc(O)cc4C[C@@H](CCCCCCCCC[S+]([O-])CCCC(F)(F)C(F)(F)F)[C@H]3[C@@H]1CC[C@@H]2O (some centres unmarked) [Fulvestrant, reference compound]
ERα full-length
  displacement of the Fluormone tracer from ERα: efficiently displaced the Fluormone tracer
MCF-7 cells
  inhibition of colony expansion in the presence of AHR antagonist CH223191: inhibited colony growth in the presence of CH223191
MCF-7 luc; Figure 1B, MCF-7 luc, absence of E2, 14 days
  IC50: 0.14 nM
MCF-7 luc; Figure 1C, MCF-7 luc + 10 nM E2, 14 days
  IC50: 69.2 nM
MCF-7 luc; Figure 1D, MCF-7 luc, absence of E2, 14 days
  IC50: 0.12 nM
MCF-7 luc; Figure 1E, MCF-7 luc + 10 nM E2, 14 days
  IC50: 78.1 nM
MCF-7 luc Y537S; read-out: IC50 clonal expansion, Figure 1B, MCF-7 luc Y537S, absence of E2, 14 days
  IC50: 6.6 nM
MCF-7 luc Y537S; read-out: IC50 clonal expansion, Figure 1C, MCF-7 luc Y537S + 10 nM E2, 14 days
  IC50: 150 nM
MCF-7 luc Y537S; read-out: IC50 clonal expansion, Figure 1D, MCF-7 luc Y537S, absence of E2, 14 days
  IC50: 7.47 nM
MCF-7 luc Y537S; read-out: IC50 clonal expansion, Figure 1E, MCF-7 luc Y537S + 10 nM E2, 14 days
  IC50: 147 nM
[2]
  IC50: 6.6 to 9.57 nM
PDxO#28
  organoid viability (survival): modest
[3]
  disruption of coactivator peptide binding to E2-liganded ERα: clearly disrupted binding of the coactivator peptides
MCF-7 luc D538G; read-out: IC50 clonal expansion, Figure 1B, MCF-7 luc D538G, absence of E2, 14 days
  IC50: 9.57 nM
MCF-7 luc D538G; read-out: IC50 clonal expansion, Figure 1C, MCF-7 luc D538G + 10 nM E2, 14 days
  IC50: 1910 nM
MCF-7 luc D538G; read-out: IC50 clonal expansion, Figure 1D, MCF-7 luc D538G, absence of E2, 14 days
  IC50: 12.2 nM
MCF-7 luc D538G; read-out: IC50 clonal expansion, Figure 1E, MCF-7 luc D538G + 10 nM E2, 14 days
  IC50: 1910 nM
CTC-ITB-01 cells; 48 h
  CC50: 8800 nM
CTC-ITB-01 cells; 120 h
  CC50: 6300 nM

## Fc1ccccc1-c1cn2cc(C(F)(F)F)cc(Cl)c2n1 [X19720]
MCF-7 cells
  inhibition of colony expansion in the presence of AHR antagonist CH223191: clearly abrogated by the AHR antagonist CH223191
ERα in MCF-7 cells
  ERα destabilization (immunoblot): most proficient in destabilizing ERα
[4]
  expression of AHR target genes (RT-PCR): enhanced the transcriptional activity of the AHR target genes in both MCF-7 and T47D cells
[5]
  stability in aqueous environment: no obvious decomposition detected
[6]
  solubility thermodynamic at 24 h: 1.4 µM (≈ 0.441 µg/mL)
[6]; [7]
  solubility thermodynamic at 24 h: 1.35 µM (≈ 0.425 µg/mL)

## FC(F)(F)c1cc(Cl)c2nc(-c3ccccc3)cn2c1 [X15696]
MCF-7 cells
  inhibition of colony expansion in the presence of AHR antagonist CH223191: clearly abrogated by the AHR antagonist CH223191
ERα in MCF-7 cells
  ERα destabilization (immunoblot): most proficient in destabilizing ERα
[4]
  expression of AHR target genes (RT-PCR): enhanced the transcriptional activity of the AHR target genes in both MCF-7 and T47D cells
[5]
  stability in aqueous environment: no obvious decomposition detected
[6]
  solubility thermodynamic at 24 h: 5 µM (≈ 1.48 µg/mL)
[6]; [7]
  solubility thermodynamic at 24 h: 5.11 µM (≈ 1.52 µg/mL)

Source: publication PMC13197777, “Distinct 2-phenylimidazo[1,2-a]pyridine derivatives that inhibit breast cancer cell proliferation identified as AHR ligands” (iScience, 2026)
